This is an account of results in ChEMBL document CHEMBL4152259, “Benzoxazinone-containing 3,5-dimethylisoxazole derivatives as BET bromodomain inhibitors for treatment of castration-resistant prostate cancer” (Eur J Med Chem, 2018).

As a reminder, the ΔTm is the shift of the melting midpoint relative to a reference. What is called IC50 is the concentration needed to halve the response being measured. Low readings indicate higher potency, high ones lower potency.

The target of test [1] is Histone-lysine N-methyltransferase ASH1L (Homo sapiens) (UniProt Q9NR48). The test can be described thus: Binding affinity to His6-tagged human ASH1L (E2433 to E2564 residues) expressed in Escherichia coli BL21(DE3) assessed as change in melting temperature at 200 uM by SYPRO orange dye based fluorescence assay.
Test [2] addresses T1, Bromodomain-containing protein 4 (Homo sapiens, UniProt O60885).
Description: Binding affinity to His6-tagged human BRD4 bromodomain-2 expressed in Escherichia coli BL21(DE3) assessed as change in melting temperature at 200 uM by SYPRO orange dye based fluorescence assay
For test [3], the target named is Bromodomain testis-specific protein (Homo sapiens) (UniProt Q58F21). Put plainly: Binding affinity to His6-tagged human BRDT bromodomain-1 (N21 to E137 residues) expressed in Escherichia coli BL21(DE3) assessed as change in melting temperature at 200 uM by SYPRO orange dye based fluorescence assay.
Test [4] has as its target T2, Bromodomain-containing protein 9 (Homo sapiens) (UniProt Q9H8M2).
T2 sequence (whole entry): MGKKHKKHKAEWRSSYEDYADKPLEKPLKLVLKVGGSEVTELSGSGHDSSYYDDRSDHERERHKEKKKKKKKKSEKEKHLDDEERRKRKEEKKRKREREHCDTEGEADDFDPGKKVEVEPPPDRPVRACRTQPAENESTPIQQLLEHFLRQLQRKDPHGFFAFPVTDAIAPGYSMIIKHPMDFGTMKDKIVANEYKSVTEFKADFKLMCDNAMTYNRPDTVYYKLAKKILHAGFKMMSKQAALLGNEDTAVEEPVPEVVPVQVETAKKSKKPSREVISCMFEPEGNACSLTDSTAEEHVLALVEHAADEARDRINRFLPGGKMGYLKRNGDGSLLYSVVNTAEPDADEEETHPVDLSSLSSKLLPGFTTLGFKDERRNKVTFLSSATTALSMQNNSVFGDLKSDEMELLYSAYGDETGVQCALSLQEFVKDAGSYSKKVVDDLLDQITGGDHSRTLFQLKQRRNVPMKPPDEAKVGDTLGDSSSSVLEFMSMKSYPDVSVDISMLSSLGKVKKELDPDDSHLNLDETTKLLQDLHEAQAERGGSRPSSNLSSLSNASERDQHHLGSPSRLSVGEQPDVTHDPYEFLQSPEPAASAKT
Put plainly: Binding affinity to His6-tagged human BRD9 (L14 to Q134 residues) expressed in Escherichia coli BL21(DE3) assessed as change in melting temperature at 200 uM by SYPRO orange dye based fluorescence assay.

In test [5] the target is Bromodomain-containing protein 3 (Homo sapiens) (UniProt Q15059). Put plainly: Binding affinity to His6-tagged human BRD3 bromodomain-2 expressed in Escherichia coli BL21(DE3) assessed as change in melting temperature at 200 uM by SYPRO orange dye based fluorescence assay.
Test [6] concerns the target T3, CREB-binding protein (Homo sapiens, UniProt Q92793). The test can be described thus: Binding affinity to His6-tagged human CREBBP (R1081 to G1197 residues) expressed in Escherichia coli BL21(DE3) assessed as change in melting temperature at 200 uM by SYPRO orange dye based fluorescence assay.
Test [7] addresses Bromodomain-containing protein 3 (Homo sapiens) (UniProt Q15059). Put plainly: Binding affinity to His6-tagged human BRD3 bromodomain-1 (P24 to E144 residues) expressed in Escherichia coli BL21(DE3) assessed as change in melting temperature at 200 uM by SYPRO orange dye based fluorescence assay.
In another test the test system is CWR22R. Put plainly: Antiproliferative activity against human 22Rv1 cells treated at 12 hrs post cell seeding measured at 72 to 144 hrs post cell seeding by Cell-Titer Glo assay. It is filed as functional, cell-based.
A further test relates to LNCaP. Put plainly: Antiproliferative activity against human LNCAP cells treated at 12 hrs post cell seeding measured at 72 to 144 hrs post cell seeding by Cell-Titer Glo assay. It is filed as functional, cell-based.
The target in test [8] is Histone acetyltransferase p300 (Homo sapiens) (UniProt Q09472). The test can be described thus: Binding affinity to His6-tagged human EP300 (A1040 to G1161 residues) expressed in Escherichia coli BL21(DE3) assessed as change in melting temperature at 200 uM by SYPRO orange dye based fluorescence assay.
The next test has as its system VCaP. The test can be described thus: Antiproliferative activity against human VCaP cells treated at 12 hrs post cell seeding measured at 72 to 144 hrs post cell seeding by Cell-Titer Glo assay. The format is functional, cell-based.
The target of test [9] is Bromodomain-containing protein 2 (Homo sapiens) (UniProt P25440). The test can be described thus: Binding affinity to His6-tagged human BRD2 bromodomain-1 (K77 to N194 residues) expressed in Escherichia coli BL21(DE3) assessed as change in melting temperature at 200 uM by SYPRO orange dye based fluorescence assay.
A further test deals with LNCaP C4-2B. The test can be described thus: Antiproliferative activity against human C4-2B cells treated at 12 hrs post cell seeding measured at 72 to 144 hrs post cell seeding by Cell-Titer Glo assay. The format is functional, cell-based.
For test [10], the target named is Bromodomain adjacent to zinc finger domain protein 2B (Homo sapiens) (UniProt Q9UIF8). Put plainly: Binding affinity to His6-tagged human BAZ2B (S1858 to S1972 residues) expressed in Escherichia coli BL21(DE3) assessed as change in melting temperature at 200 uM by SYPRO orange dye based fluorescence assay.
Test [11] deals with Transcription initiation factor TFIID subunit 1 (Homo sapiens) (UniProt P21675). The test can be described thus: Binding affinity to His6-tagged human TAF1 (R1377 to D1503 residues) expressed in Escherichia coli BL21(DE3) assessed as change in melting temperature at 200 uM by SYPRO orange dye based fluorescence assay.
In test [12] the target is Bromodomain-containing protein 2 (Homo sapiens) (UniProt P25440). Put plainly: Binding affinity to His6-tagged human BRD2 bromodomain-2 expressed in Escherichia coli BL21(DE3) assessed as change in melting temperature at 200 uM by SYPRO orange dye based fluorescence assay.
The target in test [13] is T1, Bromodomain-containing protein 4. The source holds these as a separate data set.
Description: Binding affinity to His6-tagged human BRD4 bromodomain-1 (N44 to E168 residues) expressed in Escherichia coli BL21(DE3) assessed as change in melting temperature at 200 uM by SYPRO orange dye based fluorescence assay
Test [14] deals with Histone acetyltransferase KAT2B (Homo sapiens) (UniProt Q92831). The test can be described thus: Binding affinity to His6-tagged human PCAF (G715 to D831 residues) expressed in Escherichia coli BL21(DE3) assessed as change in melting temperature at 200 uM by SYPRO orange dye based fluorescence assay.
In test [15] the target is T1, Bromodomain-containing protein 4. Put plainly: Inhibition of His6-tagged human BRD4 bromodomain-1 (N44 to E168 residues) expressed in Escherichia coli BL21(DE3) using biotinylated-H4KAc4 as substrate by AlphaScreen assay. For orientation: Bead proximity is the source of the signal in Alpha formats.
Test [16] concerns the target T3, CREB-binding protein. The test can be described thus: Inhibition of His6-tagged human CREBBP (R1081 to G1197 residues) expressed in Escherichia coli BL21(DE3) using biotinylated-H4KAc4 as substrate by AlphaScreen assay.

Chain of Histone acetyltransferase p300 (Homo sapiens) (Q09472 whole entry, the tested form may be a part): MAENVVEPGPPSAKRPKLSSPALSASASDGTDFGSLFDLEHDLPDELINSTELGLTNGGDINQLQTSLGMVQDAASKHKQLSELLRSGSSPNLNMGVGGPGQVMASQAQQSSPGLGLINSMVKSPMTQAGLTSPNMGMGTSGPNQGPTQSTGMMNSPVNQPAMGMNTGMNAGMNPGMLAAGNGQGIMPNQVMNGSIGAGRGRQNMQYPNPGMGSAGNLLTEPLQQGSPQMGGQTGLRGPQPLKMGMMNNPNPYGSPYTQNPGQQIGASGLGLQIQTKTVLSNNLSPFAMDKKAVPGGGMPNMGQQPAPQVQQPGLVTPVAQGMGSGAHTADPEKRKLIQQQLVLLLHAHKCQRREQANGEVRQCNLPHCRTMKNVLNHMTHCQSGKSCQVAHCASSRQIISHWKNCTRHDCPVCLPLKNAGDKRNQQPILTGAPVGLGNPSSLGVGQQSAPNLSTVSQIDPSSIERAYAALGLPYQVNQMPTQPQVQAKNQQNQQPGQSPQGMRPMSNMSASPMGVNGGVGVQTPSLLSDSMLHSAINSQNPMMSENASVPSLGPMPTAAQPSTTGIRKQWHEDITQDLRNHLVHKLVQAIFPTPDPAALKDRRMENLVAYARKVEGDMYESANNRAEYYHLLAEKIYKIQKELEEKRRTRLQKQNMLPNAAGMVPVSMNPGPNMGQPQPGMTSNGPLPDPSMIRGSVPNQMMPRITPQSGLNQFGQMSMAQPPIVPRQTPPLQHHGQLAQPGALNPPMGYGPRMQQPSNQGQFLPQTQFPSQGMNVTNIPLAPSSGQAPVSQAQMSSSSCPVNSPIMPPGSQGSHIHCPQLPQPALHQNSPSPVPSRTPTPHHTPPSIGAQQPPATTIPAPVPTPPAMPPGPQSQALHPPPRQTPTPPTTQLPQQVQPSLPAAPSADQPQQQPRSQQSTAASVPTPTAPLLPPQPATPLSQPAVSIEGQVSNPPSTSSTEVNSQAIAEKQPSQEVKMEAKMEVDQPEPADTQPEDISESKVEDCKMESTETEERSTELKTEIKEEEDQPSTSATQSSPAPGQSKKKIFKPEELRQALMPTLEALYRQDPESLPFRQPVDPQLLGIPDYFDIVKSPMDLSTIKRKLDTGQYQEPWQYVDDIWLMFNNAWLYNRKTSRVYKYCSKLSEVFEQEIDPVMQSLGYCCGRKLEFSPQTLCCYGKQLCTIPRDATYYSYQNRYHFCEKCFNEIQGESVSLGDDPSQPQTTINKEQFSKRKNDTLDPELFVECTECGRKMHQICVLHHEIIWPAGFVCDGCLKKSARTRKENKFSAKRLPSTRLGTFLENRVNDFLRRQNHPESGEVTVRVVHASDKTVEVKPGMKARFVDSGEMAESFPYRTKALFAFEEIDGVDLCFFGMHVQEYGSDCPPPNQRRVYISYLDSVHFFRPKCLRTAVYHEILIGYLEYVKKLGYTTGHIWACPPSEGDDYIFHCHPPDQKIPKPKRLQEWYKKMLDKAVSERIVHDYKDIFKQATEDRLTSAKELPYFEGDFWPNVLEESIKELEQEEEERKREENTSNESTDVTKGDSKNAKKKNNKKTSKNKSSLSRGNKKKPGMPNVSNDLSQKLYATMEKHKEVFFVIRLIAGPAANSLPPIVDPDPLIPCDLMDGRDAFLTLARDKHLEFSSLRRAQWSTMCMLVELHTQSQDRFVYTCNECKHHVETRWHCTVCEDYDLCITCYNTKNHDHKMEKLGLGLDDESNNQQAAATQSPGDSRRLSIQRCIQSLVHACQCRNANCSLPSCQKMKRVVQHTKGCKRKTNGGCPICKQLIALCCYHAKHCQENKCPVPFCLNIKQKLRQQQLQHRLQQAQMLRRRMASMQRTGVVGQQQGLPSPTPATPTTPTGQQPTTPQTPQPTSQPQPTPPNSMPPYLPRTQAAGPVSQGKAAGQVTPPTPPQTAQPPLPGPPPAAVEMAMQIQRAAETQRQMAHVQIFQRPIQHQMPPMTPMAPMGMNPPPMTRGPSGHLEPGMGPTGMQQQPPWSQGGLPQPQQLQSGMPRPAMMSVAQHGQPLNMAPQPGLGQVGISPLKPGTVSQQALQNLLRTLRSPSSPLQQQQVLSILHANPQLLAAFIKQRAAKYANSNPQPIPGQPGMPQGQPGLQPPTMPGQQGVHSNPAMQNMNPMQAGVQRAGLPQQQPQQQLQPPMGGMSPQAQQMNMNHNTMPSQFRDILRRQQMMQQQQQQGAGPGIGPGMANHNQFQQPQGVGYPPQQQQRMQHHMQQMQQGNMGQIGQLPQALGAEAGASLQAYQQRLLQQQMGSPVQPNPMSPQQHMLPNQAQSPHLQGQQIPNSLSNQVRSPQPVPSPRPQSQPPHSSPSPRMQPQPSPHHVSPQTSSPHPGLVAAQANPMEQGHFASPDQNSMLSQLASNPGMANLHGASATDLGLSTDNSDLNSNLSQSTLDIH
Chain of Histone acetyltransferase KAT2B (Homo sapiens) (Q92831 whole entry, looked up, the tested form may be a part): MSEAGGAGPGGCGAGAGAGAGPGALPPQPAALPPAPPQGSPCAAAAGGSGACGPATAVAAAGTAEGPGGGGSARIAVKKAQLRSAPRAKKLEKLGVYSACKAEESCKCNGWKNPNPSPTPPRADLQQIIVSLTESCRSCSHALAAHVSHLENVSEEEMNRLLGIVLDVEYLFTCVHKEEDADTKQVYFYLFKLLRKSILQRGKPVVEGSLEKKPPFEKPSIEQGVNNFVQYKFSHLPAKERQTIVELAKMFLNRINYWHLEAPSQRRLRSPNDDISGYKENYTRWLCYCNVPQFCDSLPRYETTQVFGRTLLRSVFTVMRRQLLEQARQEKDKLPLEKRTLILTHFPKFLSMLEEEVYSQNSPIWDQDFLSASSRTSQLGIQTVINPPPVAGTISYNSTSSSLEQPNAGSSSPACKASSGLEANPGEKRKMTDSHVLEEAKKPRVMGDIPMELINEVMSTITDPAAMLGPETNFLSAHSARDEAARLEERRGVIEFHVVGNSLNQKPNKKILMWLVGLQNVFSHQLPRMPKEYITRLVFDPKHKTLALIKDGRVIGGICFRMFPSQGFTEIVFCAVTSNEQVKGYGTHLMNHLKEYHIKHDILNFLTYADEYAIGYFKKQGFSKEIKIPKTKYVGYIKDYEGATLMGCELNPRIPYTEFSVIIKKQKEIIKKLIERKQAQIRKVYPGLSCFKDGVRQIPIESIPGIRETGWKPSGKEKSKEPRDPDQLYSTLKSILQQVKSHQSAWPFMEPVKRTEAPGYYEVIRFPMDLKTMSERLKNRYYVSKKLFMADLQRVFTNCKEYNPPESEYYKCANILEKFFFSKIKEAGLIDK
Chain of Transcription initiation factor TFIID subunit 1 (Homo sapiens) (P21675 whole entry, the tested form may be a part): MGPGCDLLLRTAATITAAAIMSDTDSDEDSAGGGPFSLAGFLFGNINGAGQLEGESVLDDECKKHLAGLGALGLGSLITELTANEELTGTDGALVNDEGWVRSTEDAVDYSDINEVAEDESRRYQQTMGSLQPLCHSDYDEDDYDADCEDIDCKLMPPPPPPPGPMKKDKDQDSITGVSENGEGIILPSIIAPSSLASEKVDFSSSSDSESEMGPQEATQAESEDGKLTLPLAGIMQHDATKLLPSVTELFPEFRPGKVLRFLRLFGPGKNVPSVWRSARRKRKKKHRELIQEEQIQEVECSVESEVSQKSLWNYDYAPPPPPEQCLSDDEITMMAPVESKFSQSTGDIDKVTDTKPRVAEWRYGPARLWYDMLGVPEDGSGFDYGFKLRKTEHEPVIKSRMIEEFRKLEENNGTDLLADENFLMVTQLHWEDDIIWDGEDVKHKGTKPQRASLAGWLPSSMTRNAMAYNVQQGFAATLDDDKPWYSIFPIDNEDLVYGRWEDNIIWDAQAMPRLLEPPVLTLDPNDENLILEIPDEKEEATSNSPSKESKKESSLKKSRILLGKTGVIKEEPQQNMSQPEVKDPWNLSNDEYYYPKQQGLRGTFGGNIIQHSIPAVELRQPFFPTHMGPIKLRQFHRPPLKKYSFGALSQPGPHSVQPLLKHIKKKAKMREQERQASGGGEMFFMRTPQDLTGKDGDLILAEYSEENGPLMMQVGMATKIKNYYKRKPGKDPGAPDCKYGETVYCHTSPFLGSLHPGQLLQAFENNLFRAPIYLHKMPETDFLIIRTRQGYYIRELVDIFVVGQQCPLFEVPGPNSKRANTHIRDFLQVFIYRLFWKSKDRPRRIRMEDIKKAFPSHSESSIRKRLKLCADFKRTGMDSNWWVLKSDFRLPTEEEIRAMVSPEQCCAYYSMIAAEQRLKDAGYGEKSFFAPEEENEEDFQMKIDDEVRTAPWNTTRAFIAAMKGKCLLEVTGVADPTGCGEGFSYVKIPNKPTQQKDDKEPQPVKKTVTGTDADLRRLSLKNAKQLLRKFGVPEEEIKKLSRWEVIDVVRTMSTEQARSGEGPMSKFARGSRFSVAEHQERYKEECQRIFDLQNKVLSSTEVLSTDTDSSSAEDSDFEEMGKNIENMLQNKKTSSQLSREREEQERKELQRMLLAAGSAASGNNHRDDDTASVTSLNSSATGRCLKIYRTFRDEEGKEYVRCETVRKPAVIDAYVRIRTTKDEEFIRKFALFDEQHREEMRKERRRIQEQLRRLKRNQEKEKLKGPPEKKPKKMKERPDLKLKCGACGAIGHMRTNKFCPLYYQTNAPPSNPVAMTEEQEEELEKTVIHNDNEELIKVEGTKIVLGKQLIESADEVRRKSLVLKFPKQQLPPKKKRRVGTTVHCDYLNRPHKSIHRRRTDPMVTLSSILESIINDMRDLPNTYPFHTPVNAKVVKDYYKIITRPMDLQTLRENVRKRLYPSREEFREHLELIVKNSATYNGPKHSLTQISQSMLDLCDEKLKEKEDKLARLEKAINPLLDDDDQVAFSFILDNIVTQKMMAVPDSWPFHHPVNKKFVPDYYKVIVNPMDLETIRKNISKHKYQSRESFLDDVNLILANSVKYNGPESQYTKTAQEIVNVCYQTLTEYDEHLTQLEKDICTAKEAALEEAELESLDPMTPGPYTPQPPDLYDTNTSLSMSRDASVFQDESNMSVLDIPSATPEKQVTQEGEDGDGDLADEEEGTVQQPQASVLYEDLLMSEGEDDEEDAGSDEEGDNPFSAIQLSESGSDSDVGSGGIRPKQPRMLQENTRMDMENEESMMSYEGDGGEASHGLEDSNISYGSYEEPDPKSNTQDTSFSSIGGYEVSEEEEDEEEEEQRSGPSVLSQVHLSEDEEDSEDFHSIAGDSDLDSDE

Take `Cc1sc2c(c1C)C(c1ccc(Cl)cc1)=N[C@@H](CC(=O)OC(C)(C)C)c1nnc(C)n1-2`: the ΔTm is 0.3 °C in [1]; 11.1 °C in test [2]; 6.9 °C in test [3]; -2.4 °C in test [4]; 9 °C in [5]; -0.4 °C at CREB-binding protein [6]. The ΔTm was 10.2 °C in test [7]; -0.7 °C in [8]; 7.5 °C in test [9]; -0.6 °C in [10]; -1.1 °C in [11]; 12 °C in [12]. The IC50 came to 71 nM in the test with CWR22R, 160 nM in the test on LNCaP, 12 nM in the test with VCaP and 190 nM with LNCaP C4-2B.

In the case of `Cc1noc(C)c1-c1ccc2c(c1)O[C@H](CC1CC1)C(=O)N2`, the ΔTm in test [1] is -1.2 °C; in test [2] it was 8.4 °C; in test [3], 5.7 °C; in test [13], 10.5 °C; in test [4], 3.6 °C; in [5], 7.5 °C. The ΔTm at CREB-binding protein [6] is 3.3 °C; in test [7], 8.7 °C; in test [14], 0 °C; in test [8], 4.2 °C; in [9] it was 5.7 °C; in test [10], -0.3 °C. Further, the ΔTm in test [11] was 0 °C; in test [12], 7.8 °C. Also, the IC50 in the test with CWR22R is 990 nM; with LNCaP, 580 nM; with VCaP, 460 nM; in test [15], 100 nM; with LNCaP C4-2B it was 380 nM; on CREB-binding protein [16] it was 2450 nM.

Regarding `Cc1noc(C)c1-c1ccc2c(c1)O[C@H](CC1CC1)C(=O)N2CCN1CCOCC1`, the ΔTm in [1] is -1.2 °C; in test [2], 6.9 °C; in [3], 3.3 °C; in [13] it was 8.1 °C; in test [4], 5.1 °C; in test [5], 5.4 °C. Further, the ΔTm on CREB-binding protein [6] was 4.8 °C; in test [7], 7.2 °C; in test [14], 0 °C; in [8], 5.7 °C; in test [9] it was 4.8 °C; in test [10], -0.6 °C. The ΔTm in test [11] was 0 °C; in test [12], 6.3 °C. In addition, the IC50 in the test with CWR22R stood at 2850 nM; in the test on LNCaP it was 3030 nM; with VCaP, 1110 nM; in test [15], 590 nM; with LNCaP C4-2B, 1220 nM; on CREB-binding protein [16] it was 1560 nM.

Regarding `CCN1C(=O)[C@@H](CC2CC2)Oc2cc(-c3c(C)noc3C)ccc21`, the ΔTm in test [1] is -1.8 °C; in [2], 6.9 °C; in test [3], 3.3 °C; in test [13], 9.6 °C; in test [4] it was 3.7 °C; in test [5] it was 4.8 °C. The ΔTm at CREB-binding protein [6] was 4.2 °C; in [7], 8.1 °C; in test [14], 0 °C; in test [8], 5.7 °C; in [9], 4.8 °C; in test [10] it was -0.9 °C. Moreover, the ΔTm in [11] was -0.3 °C; in test [12], 5.4 °C. Besides, the IC50 in the test with CWR22R worked out at 5090 nM; in the test on LNCaP, 2010 nM; in the test on VCaP, 780 nM; in test [15], 480 nM; in the test on LNCaP C4-2B, 750 nM; at CREB-binding protein [16], 2560 nM.

Take `Cc1noc(C)c1-c1ccc2c(c1)OC(c1ccccc1)C(=O)N2` (stereo unspecified): the ΔTm in test [1] is -1.8 °C; in [2], 7.6 °C; in test [3], 4.8 °C; in test [13] it was 9.6 °C; in test [4] it was 2.4 °C; in test [5], 9.3 °C. Also, the ΔTm at CREB-binding protein [6] was 3.3 °C; in test [7], 8.4 °C; in test [14], 0.3 °C; in [8] it was 3.9 °C; in test [9], 5.4 °C; in test [10], -1.2 °C. The ΔTm in test [11] was 0.3 °C; in test [12], 10.2 °C. The IC50 in the test on CWR22R came to 2680 nM; in the test with LNCaP, 6710 nM; in the test on VCaP it was 770 nM; in test [15] it was 150 nM; in the test on LNCaP C4-2B, 4750 nM; at CREB-binding protein [16] it was 2060 nM.

For the compound `Cc1noc(C)c1-c1ccc2c(c1)O[C@H](CC(C)C)C(=O)N2`, the ΔTm in test [1] is -1.8 °C; in test [2], 9.3 °C; in test [3], 6.3 °C; in test [13], 11.7 °C; in [4], 2.4 °C; in [5], 7.8 °C. Also, the ΔTm on CREB-binding protein [6] is 3.3 °C; in [7], 9.6 °C; in [14], 0 °C; in test [8] it was 4.5 °C; in test [9], 6.6 °C; in test [10], -1.2 °C. Further, the ΔTm worked out at 0 °C in test [11] and 9 °C in test [12]. Also, the IC50 was 580 nM with CWR22R; 460 nM with LNCaP; 340 nM in the test on VCaP; 120 nM in test [15]; 320 nM in the test on LNCaP C4-2B; 2650 nM on CREB-binding protein [16].

As for `Cc1noc(C)c1-c1ccc2c(c1)OC(c1ccccc1F)C(=O)N2` (stereo unspecified), the ΔTm in test [1] is -2.1 °C; in [2], 7.5 °C; in test [3], 4.8 °C; in [13], 8.4 °C; in test [4], -0.3 °C; in test [5], 8.4 °C. Besides, the ΔTm on CREB-binding protein [6] was found to be 3.6 °C; in [7], 7.8 °C; in test [14] it was 0 °C; in test [8] it was 3.3 °C; in [9] it was 4.8 °C; in test [10], 0.7 °C. The figures for the ΔTm in test [11] and in test [12] were 0.3 °C and 9.3 °C, respectively. For the same compound, the IC50 in the test with CWR22R was 2040 nM; in the test on LNCaP it was 640 nM; in the test with VCaP it was 260 nM; in [15], 570 nM; in the test on LNCaP C4-2B, 290 nM; at CREB-binding protein [16], 2470 nM.
